{"source": "BindingDB's records for doi:10.1021/jm9904102", "about": "(Abbott Laboratories, 2000)", "data": [{"molecular_target": "T1, Polyunsaturated fatty acid 5-lipoxygenase (Homo sapiens, UniProt P09917)", "T1 sequence (P09917 whole entry)": "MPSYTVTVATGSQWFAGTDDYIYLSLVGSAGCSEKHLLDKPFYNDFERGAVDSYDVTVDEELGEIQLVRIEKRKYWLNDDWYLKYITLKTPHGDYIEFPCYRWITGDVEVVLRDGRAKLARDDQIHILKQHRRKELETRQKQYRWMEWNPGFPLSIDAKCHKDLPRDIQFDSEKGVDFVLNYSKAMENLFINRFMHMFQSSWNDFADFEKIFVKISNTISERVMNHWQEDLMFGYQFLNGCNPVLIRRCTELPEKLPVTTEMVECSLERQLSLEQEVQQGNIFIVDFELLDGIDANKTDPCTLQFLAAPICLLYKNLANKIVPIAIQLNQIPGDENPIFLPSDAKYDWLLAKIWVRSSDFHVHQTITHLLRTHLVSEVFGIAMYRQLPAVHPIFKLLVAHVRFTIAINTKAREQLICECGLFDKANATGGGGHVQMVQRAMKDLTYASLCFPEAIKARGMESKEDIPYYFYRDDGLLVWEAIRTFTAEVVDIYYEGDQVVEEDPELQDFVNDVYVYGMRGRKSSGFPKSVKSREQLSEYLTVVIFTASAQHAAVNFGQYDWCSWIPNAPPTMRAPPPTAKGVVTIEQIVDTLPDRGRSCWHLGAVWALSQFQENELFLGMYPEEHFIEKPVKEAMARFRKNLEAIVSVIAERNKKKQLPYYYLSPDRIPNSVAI", "assay": "Inhibition of calcium ionophore (A-23187)-stimulated LTB4 formation in human neutrophil assay", "units": {"IC50": "nM"}, "values": [{"compound": "C/C(=N\\OC(c1ccc(OCc2ccc3ccccc3n2)cc1)C1CCCCC1)C(=O)O", "note": "(configuration not stated) [S-E-2-{Cyclohexyl-[4-(quinolin-2-ylmethoxy)-phenyl]-methoxyimino}-propionic acid]", "IC50": 15}]}, {"molecular_target": "not listed separately", "assay": "Inhibition of calcium ionophore (A-23187)-stimulated LTB4 formation in human neutrophil assay", "units": {"IC50": "nM"}, "values": [{"compound": "C/C(=N\\OC(c1ccc(OCc2ccc3ccccc3n2)c(C)c1)C1CCCCC1)C(=O)O", "note": "(configuration not stated) [2-{Cyclohexyl-[3-methyl-4-(quinolin-2-ylmethoxy)-phenyl]-methoxyimino}-propionic acid (0.1H2O)]", "IC50": 20}, {"compound": "O=C(O)/C(Cc1ccc(O)cc1)=N/OC(c1ccc(OCc2ccc3ccccc3n2)cc1)C1CCCCC1", "note": "(configuration not stated) [2-{Cyclohexyl-[4-(quinolin-2-ylmethoxy)-phenyl]-methoxyimino}-3-(4-hydroxy-phenyl)-propionic acid]", "IC50": 43}, {"compound": "C/C(=N\\OC(CCCc1ccc(F)cc1)c1ccc(OCc2ccc3ccccc3n2)cc1)C(=O)O", "note": "(configuration not stated) [2-{4-(4-Fluoro-phenyl)-1-[4-(quinolin-2-ylmethoxy)-phenyl]-butoxyimino}-propionic acid]", "IC50": 9}, {"compound": "C/C(=N\\OC(c1ccc(OCc2ccc3ccccc3n2)cc1SC1CCCCC1)C1CCCCC1)C(=O)O", "note": "(configuration not stated) [2-{Cyclohexyl-[2-cyclohexylsulfanyl-4-(quinolin-2-ylmethoxy)-phenyl]-methoxyimino}-propionic acid]", "IC50": 90}, {"compound": "C/C(=N\\OC(c1ccc(OCc2cscn2)cc1)C1CCCCC1)C(=O)O", "note": "(configuration not stated) [2-{Cyclohexyl-[4-(thiazol-4-ylmethoxy)-phenyl]-methoxyimino}-propionic acid (0.25H2O)]", "IC50": 360}, {"compound": "CC(C)(C)SC/C(=N\\OC(c1ccc(OCc2ccc3ccccc3n2)cc1)C1CCCCC1)C(=O)O", "note": "(configuration not stated) [3-tert-Butylsulfanyl-2-{cyclohexyl-[4-(quinolin-2-ylmethoxy)-phenyl]-methoxyimino}-propionic acid]", "IC50": 120}, {"compound": "C/C(=N\\O[C@H](c1ccc(OCc2ccc3ccccc3n2)cc1)C1CCCCC1)C(=O)O", "note": "[listing 1 of 2 here]", "IC50": 34}, {"compound": "C/C(=N\\O[C@@H](c1ccc(OCc2ccc3ccccc3n2)cc1)C1CCCCC1)C(=O)O", "IC50": 70}, {"compound": "O=C(O)/C(Cc1ccccc1)=N/OC(c1ccc(OCc2ccc3ccccc3n2)cc1)C1CCCCC1", "note": "(configuration not stated) [2-{Cyclohexyl-[4-(quinolin-2-ylmethoxy)-phenyl]-methoxyimino}-3-phenyl-propionic acid (H2O)]", "IC50": 35}, {"compound": "CC(C)(C)Sc1c(CC(C)(C)C(=O)O)n(Cc2ccc(Cl)cc2)c2ccc(OCc3ccc4ccccc4n3)cc12", "note": "[MK-591]", "IC50": 8}, {"compound": "O=C(O)/C=N/OC(c1ccc(OCc2nc3ccccc3s2)cc1)C1CCCCC1", "note": "(configuration not stated) [{[4-(Benzothiazol-2-ylmethoxy)-phenyl]-cyclohexyl-methoxyimino}-acetic acid]", "IC50": 60}, {"compound": "CC(C)(CC(O/N=C/C(=O)O)c1ccc(OCc2ccc3ccccc3n2)cc1)c1ccccc1", "note": "(configuration not stated) [{3-Methyl-3-phenyl-1-[4-(quinolin-2-ylmethoxy)-phenyl]-butoxyimino}-acetic acid]", "IC50": 10}, {"compound": "C/C(CCCC(=O)O)=N\\OC(c1ccc(OCc2ccc3ccccc3n2)cc1)C1CCCCC1", "note": "(configuration not stated) [5-{Cyclohexyl-[4-(quinolin-2-ylmethoxy)-phenyl]-methoxyimino}-hexanoic acid]", "IC50": 59}, {"compound": "C/C(=N\\OC(c1ccc(OCc2nc3ccccc3s2)cc1Cl)C1CCCCC1)C(=O)O", "note": "(configuration not stated) [2-{[4-(Benzothiazol-2-ylmethoxy)-2-chloro-phenyl]-cyclohexyl-methoxyimino}-propionic acid]", "IC50": 28}, {"compound": "O=C(O)c1ccc(/C=N/OC(c2ccc(OCc3ccc4ccccc4n3)cc2)C2CCCCC2)cc1", "note": "(configuration not stated) [4-({Cyclohexyl-[4-(quinolin-2-ylmethoxy)-phenyl]-methoxyimino}-methyl)-benzoic acid]", "IC50": 31}, {"compound": "O=C(O)/C(=N/OC(c1ccc(OCc2ccc3ccccc3n2)cc1)C1CCCCC1)c1ccccc1", "note": "(configuration not stated) [{Cyclohexyl-[4-(quinolin-2-ylmethoxy)-phenyl]-methoxyimino}-phenyl-acetic acid (0.5H2O)]", "IC50": 31}, {"compound": "O=C(O)/C=N/OC(c1ccc(OCc2ccc3ccccc3n2)cc1)C1C2CC3CC(C2)CC1C3", "note": "(configuration not stated) [{Adamantan-2-yl-[4-(quinolin-2-ylmethoxy)-phenyl]-methoxyimino}-acetic acid]", "IC50": 21}, {"compound": "O=C(O)/C=N/OC(CC1CCCCC1)c1ccc(OCc2ccc3ccccc3n2)cc1", "note": "(configuration not stated) [{2-Cyclohexyl-1-[4-(quinolin-2-ylmethoxy)-phenyl]-ethoxyimino}-acetic acid]", "IC50": 27}, {"compound": "O=C(O)/C=N/OC(c1ccc(OCc2nc3ccccc3o2)cc1)C1CCCCC1", "note": "(configuration not stated) [{[4-(Benzooxazol-2-ylmethoxy)-phenyl]-cyclohexyl-methoxyimino}-acetic acid (0.5H2O)]", "IC50": 143}, {"compound": "O=C(O)/C(CSCCO)=N/OC(c1ccc(OCc2ccc3ccccc3n2)cc1)C1CCCCC1", "note": "(configuration not stated) [2-{Cyclohexyl-[4-(quinolin-2-ylmethoxy)-phenyl]-methoxyimino}-3-(2-hydroxy-ethylsulfanyl)-propionic acid]", "IC50": 181}, {"compound": "C/C(=N\\OC(CC1CCCCC1)c1ccc(OCc2ccc3ccccc3n2)cc1)C(=O)O", "note": "(configuration not stated) [2-{2-Cyclohexyl-1-[4-(quinolin-2-ylmethoxy)-phenyl]-ethoxyimino}-propionic acid]", "IC50": 29}, {"compound": "C/C(=N\\OCC(c1ccc(OCc2ccc3ccccc3n2)cc1)C1CCCCC1)C(=O)O", "note": "(configuration not stated) [2-{2-Cyclohexyl-2-[4-(quinolin-2-ylmethoxy)-phenyl]-ethoxyimino}-propionic acid]", "IC50": 20}, {"compound": "CC/C(=N\\OC(c1ccc(OCc2ccc3ccccc3n2)cc1)C1CCCCC1)C(=O)O", "note": "(configuration not stated) [2-{Cyclohexyl-[4-(quinolin-2-ylmethoxy)-phenyl]-methoxyimino}-butyric acid (H2O)]", "IC50": 30}, {"compound": "C/C(=N\\OC(c1ccc(OCc2ccc3cc(F)ccc3n2)cc1)C1CCCCC1)C(=O)O", "note": "(configuration not stated) [2-{Cyclohexyl-[4-(6-fluoro-quinolin-2-ylmethoxy)-phenyl]-methoxyimino}-propionic acid]", "IC50": 20}, {"compound": "C=CCC(O/N=C(\\C)C(=O)O)c1ccc(OCc2ccc3ccccc3n2)cc1", "note": "(configuration not stated) [2-{1-[4-(Quinolin-2-ylmethoxy)-phenyl]-but-3-enyloxyimino}-propionic acid]", "IC50": 142}, {"compound": "C/C(CCCCCC(=O)O)=N\\OC(c1ccc(OCc2ccc3ccccc3n2)cc1)C1CCCCC1", "note": "(configuration not stated) [7-{Cyclohexyl-[4-(quinolin-2-ylmethoxy)-phenyl]-methoxyimino}-octanoic acid (0.25H2O)]", "IC50": 17}, {"compound": "CCCCC(CCCC)C(O/N=C(\\C)C(=O)O)c1ccc(OCc2ccc3ccccc3n2)cc1", "note": "(configuration not stated) [2-{2-Butyl-1-[4-(quinolin-2-ylmethoxy)-phenyl]-hexyloxyimino}-propionic acid (2H2O)]", "IC50": 14}, {"compound": "CCCCC(CCCC)C(O/N=C/C(=O)O)c1ccc(OCc2ccc3ccccc3n2)cc1", "note": "(configuration not stated) [{2-Butyl-1-[4-(quinolin-2-ylmethoxy)-phenyl]-hexyloxyimino}-acetic acid]", "IC50": 10}, {"compound": "C/C(=N\\O[C@H](c1ccc(OCc2ccc3ccccc3n2)cc1)C1CCCCC1)C(=O)O", "note": "[listing 2 of 2 here]", "IC50": 8}, {"compound": "C/C(=N\\OC(c1cc2ccc(OCc3ccc4ccccc4n3)cc2s1)C1CCCCC1)C(=O)O", "note": "(configuration not stated) [2-{Cyclohexyl-[6-(quinolin-2-ylmethoxy)-benzo[b]thiophen-2-yl]-methoxyimino}-propionic acid]", "IC50": 40}, {"compound": "C/C(=N\\OC(c1ccc(OCc2ccc3ccccc3n2)cc1)C1CCCC1)C(=O)O", "note": "(configuration not stated) [2-{Cyclopentyl-[4-(quinolin-2-ylmethoxy)-phenyl]-methoxyimino}-propionic acid]", "IC50": 16}]}]}
